Like-named read-outs stand apart in the source and are kept apart here.
Biological target: T1, ATR kinase (full-length ATR) (Homo sapiens, UniProt Q13535)
T1 construct: Assays were carried out at 25° C. in the presence of 5 nM full-length ATR
Assay: ATR Inhibition Assay (radioactive-phosphate incorporation)
Format: biochemical
Summary of the method: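 Radiometric 33P filter assay with 5 nM full-length ATR in 50 mM Tris/HCl pH 7.5, 10 mM MgCl2, 1 mM DTT at 25 °C. Final 10 μM [γ-33P]ATP and 800 μM peptide; 10 min compound preincubation, ATP start, stopped at 24 h with phosphoric acid/ATP. Ki(app) from non-linear regression of background-corrected initial rates.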

[1] = Ki(app), 5 nM full-length ATR, 10 μM ATP, 800 μM target peptide, 25° C., given as numeric lower bound without unit, read-out: ATR Inhibition Ki
[2] = Ki(app), 5 nM full-length ATR, 10 μM ATP, 800 μM target peptide, 25° C., class symbols, read-out: ATR Inhibition Ki

T1 sequence (Q13535 whole entry): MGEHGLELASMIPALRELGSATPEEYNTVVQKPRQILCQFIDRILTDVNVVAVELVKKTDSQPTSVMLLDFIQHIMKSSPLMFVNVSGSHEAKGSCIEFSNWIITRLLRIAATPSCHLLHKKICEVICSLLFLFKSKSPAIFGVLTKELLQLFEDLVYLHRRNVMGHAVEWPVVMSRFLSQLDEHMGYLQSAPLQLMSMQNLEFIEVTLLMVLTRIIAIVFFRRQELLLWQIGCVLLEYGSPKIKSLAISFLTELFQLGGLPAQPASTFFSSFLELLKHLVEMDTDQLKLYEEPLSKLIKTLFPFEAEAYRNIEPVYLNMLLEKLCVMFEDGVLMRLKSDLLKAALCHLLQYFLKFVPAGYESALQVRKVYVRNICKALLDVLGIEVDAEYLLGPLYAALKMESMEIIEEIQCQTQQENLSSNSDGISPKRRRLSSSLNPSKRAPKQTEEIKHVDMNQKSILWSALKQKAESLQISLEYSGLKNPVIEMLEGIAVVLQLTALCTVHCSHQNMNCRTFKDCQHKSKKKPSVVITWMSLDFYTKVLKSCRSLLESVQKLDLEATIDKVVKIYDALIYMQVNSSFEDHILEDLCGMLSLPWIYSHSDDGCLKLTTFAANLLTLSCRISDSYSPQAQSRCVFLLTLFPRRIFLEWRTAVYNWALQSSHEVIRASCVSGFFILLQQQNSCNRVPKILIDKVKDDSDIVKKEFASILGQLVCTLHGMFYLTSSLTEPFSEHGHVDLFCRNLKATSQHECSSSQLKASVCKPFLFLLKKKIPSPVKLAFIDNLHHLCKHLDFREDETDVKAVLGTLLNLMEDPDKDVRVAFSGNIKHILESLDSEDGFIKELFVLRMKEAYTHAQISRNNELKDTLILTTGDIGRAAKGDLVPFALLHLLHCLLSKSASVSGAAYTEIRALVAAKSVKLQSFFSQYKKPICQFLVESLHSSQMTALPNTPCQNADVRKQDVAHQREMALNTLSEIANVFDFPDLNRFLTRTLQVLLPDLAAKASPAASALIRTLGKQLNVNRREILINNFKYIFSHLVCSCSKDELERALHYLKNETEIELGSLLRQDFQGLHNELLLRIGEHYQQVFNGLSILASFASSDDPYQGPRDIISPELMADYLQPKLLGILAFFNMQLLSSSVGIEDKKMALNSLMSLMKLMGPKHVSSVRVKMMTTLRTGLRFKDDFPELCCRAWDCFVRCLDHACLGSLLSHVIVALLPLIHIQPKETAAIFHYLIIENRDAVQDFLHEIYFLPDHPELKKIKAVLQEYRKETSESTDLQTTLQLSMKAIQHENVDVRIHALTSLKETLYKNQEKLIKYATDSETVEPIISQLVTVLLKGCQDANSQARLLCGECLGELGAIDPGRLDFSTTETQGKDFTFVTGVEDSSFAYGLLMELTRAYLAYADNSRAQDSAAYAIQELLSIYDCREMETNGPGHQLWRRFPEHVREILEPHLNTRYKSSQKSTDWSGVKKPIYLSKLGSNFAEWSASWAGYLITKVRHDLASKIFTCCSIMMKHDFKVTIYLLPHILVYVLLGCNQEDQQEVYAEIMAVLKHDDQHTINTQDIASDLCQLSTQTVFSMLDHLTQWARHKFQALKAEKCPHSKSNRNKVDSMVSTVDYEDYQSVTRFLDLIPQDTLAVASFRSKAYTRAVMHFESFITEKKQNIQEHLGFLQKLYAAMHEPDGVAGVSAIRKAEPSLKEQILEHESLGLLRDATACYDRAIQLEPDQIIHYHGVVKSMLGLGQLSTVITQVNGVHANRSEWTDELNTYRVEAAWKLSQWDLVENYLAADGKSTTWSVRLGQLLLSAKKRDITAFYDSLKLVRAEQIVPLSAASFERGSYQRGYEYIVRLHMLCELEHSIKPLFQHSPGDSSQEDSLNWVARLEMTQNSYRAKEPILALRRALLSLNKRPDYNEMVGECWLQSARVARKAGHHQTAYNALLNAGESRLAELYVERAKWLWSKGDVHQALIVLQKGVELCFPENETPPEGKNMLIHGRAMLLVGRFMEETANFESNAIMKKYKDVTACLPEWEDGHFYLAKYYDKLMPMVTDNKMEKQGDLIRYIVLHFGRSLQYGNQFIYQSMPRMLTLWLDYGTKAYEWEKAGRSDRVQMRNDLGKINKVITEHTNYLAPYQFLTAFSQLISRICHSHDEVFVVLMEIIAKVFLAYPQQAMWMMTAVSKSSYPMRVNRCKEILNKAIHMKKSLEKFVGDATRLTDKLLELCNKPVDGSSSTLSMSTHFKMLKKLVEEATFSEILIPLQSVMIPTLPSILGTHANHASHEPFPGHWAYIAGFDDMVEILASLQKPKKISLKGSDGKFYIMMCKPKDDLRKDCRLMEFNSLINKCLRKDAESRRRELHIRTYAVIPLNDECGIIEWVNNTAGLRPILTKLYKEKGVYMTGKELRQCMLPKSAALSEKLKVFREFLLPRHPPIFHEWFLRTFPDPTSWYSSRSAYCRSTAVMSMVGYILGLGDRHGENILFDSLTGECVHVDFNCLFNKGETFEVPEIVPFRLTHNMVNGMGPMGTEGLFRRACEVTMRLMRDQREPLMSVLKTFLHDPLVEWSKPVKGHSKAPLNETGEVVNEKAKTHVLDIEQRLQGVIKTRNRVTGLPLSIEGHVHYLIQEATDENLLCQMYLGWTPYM

Compound	Ki [1] [nM]	Ki [2] [nM]	further results
CC(C)S(=O)(=O)c1ccc(-c2cnc3[nH]cc(C(=O)NC4CN(C(=O)OC(C)(C)C)C4)c3n2)cc1 [Compound I-111, tert-butyl 3-[[2-(4-isopropylsulfonylphenyl)-5H-pyrrolo[2,3-b]pyrazine-7-carbonyl]amino]azetidine-1-carboxylate]	> 250		
CCC[C@@H](CO)NC(=O)c1c[nH]c2ncc(-c3ccc(S(=O)(=O)C(C)C)cc3)nc12 [Compound I-112, N-[(1S)-1-(hydroxymethyl)butyl]-2-(4-isopropylsulfonylphenyl)-5H-pyrrolo[2,3-b]pyrazine-7-carboxamide]		< 100	
CC(C)S(=O)(=O)c1ccc(-c2cnc3[nH]cc(C(=O)NC4(CO)CC4)c3n2)cc1 [Compound I-113, N-[1-(hydroxymethyl)cyclopropyl]-2-(4-isopropylsulfonylphenyl)-5H-pyrrolo[2,3-b]pyrazine-7-carboxamide]	> 1000		
CC(C)S(=O)(=O)c1ccc(-c2cnc3[nH]cc(C(=O)N4CCN(C)CC4)c3n2)cc1 [Compound I-114, [2-(4-isopropylsulfonylphenyl)-5H-pyrrolo[2,3-b]pyrazin-7-yl]-(4-methylpiperazin-1-yl)methanone]		500 to 5000	
CC(C)S(=O)(=O)c1ccc(-c2cnc3[nH]cc(C(=O)N4CCCCC4CO)c3n2)cc1 (stereo not drawn) [Compound I-115, [2-(hydroxymethyl)-1-piperidyl]-[2-(4-isopropylsulfonylphenyl)-5H-pyrrolo[2,3-b]pyrazin-7-yl]methanone]		500 to 5000	
CC(C)S(=O)(=O)c1ccc(-c2cnc3[nH]cc(C(=O)N4CC5CCC(C4)O5)c3n2)cc1 [Compound I-116, [2-(4-isopropylsulfonylphenyl)-5H-pyrrolo[2,3-b]pyrazin-7-yl]-(8-oxa-3-azabicyclo[3.2.1]octan-3-yl)methanone]	> 1000		
CC[C@@H](CO)NC(=O)c1c[nH]c2ncc(-c3ccc(S(=O)(=O)C(C)C)cc3)nc12 [Compound I-117, N-[(1S)-1-(hydroxymethyl)propyl]-2-(4-isopropylsulfonylphenyl)-5H-pyrrolo[2,3-b]pyrazine-7-carboxamide]		100 to 500	
CC(C)S(=O)(=O)c1ccc(-c2cnc3[nH]cc(C(=O)NC4CCOC4)c3n2)cc1 (stereo not drawn) [Compound I-118, 2-(4-isopropylsulfonylphenyl)-N-tetrahydrofuran-3-yl-5H-pyrrolo[2,3-b]pyrazine-7-carboxamide]		100 to 500	
COCCNC(=O)c1c[nH]c2ncc(-c3ccc(S(=O)(=O)C(C)C)cc3)nc12 [Compound I-119, 2-(4-isopropylsulfonylphenyl)-N-(2-methoxyethyl)-5H-pyrrolo[2,3-b]pyrazine-7-carboxamide]		100 to 500	
CC(C)S(=O)(=O)c1ccc(-c2cnc3[nH]cc(C(=O)N4CCOCC4)c3n2)cc1 [Compound I-120, [2-(4-isopropylsulfonylphenyl)-5H-pyrrolo[2,3-b]pyrazin-7-yl]-morpholino-methanone]	> 2500		
CC(C)S(=O)(=O)c1ccc(-c2cnc3[nH]cc(C(=O)N(CCO)C4CCCCC4)c3n2)cc1 [Compound I-121, N-cyclohexyl-N-(2-hydroxyethyl)-2-(4-isopropylsulfonylphenyl)-5H-pyrrolo[2,3-b]pyrazine-7-carboxamide]	> 1000		
CC(C)S(=O)(=O)c1ccc(-c2cnc3[nH]cc(C(=O)NC4CNC4)c3n2)cc1 [Compound I-122, N-(azetidin-3-yl)-2-(4-isopropylsulfonylphenyl)-5H-pyrrolo[2,3-b]pyrazine-7-carboxamide]		500 to 5000	
CC(C)S(=O)(=O)c1ccc(-c2cnc3[nH]cc(C(=O)N[C@@H](C(N)=O)c4ccccc4)c3n2)cc1 [Compound I-123, N-[(1R)-2-amino-2-oxo-1-phenyl-ethyl]-2-(4-isopropylsulfonylphenyl)-5H-pyrrolo[2,3-b]pyrazine-7-carboxamide]		100 to 500	
CC(C)S(=O)(=O)c1ccc(-c2cnc3[nH]cc(C(=O)N[C@H](C(N)=O)c4ccccc4)c3n2)cc1 [Compound I-124, N-[(1S)-2-amino-2-oxo-1-phenyl-ethyl]-2-(4-isopropylsulfonylphenyl)-5H-pyrrolo[2,3-b]pyrazine-7-carboxamide]		100 to 500	
CC(C)S(=O)(=O)c1ccc(-c2cnc3[nH]cc(C(=O)NCc4ccc5c(c4)OCO5)c3n2)cc1 [Compound I-125, N-(1,3-benzodioxol-5-ylmethyl)-2-(4-isopropylsulfonylphenyl)-5H-pyrrolo[2,3-b]pyrazine-7-carboxamide]		< 100	
CC(c1cccc(Cl)c1)N(C)C(=O)c1c[nH]c2ncc(-c3ccc(S(=O)(=O)C(C)C)cc3)nc12 (stereo not drawn) [Compound I-126, N-[1-(3-chlorophenyl)ethyl]-2-(4-isopropylsulfonylphenyl)-N-methyl-5H-pyrrolo[2,3-b]pyrazine-7-carboxamide]		< 100	
CC(C)S(=O)(=O)c1ccc(-c2cnc3[nH]cc(C(=O)NC4CCC(CO)CC4)c3n2)cc1 (stereo not drawn) [Compound I-127, N-[4-(hydroxymethyl)cyclohexyl]-2-(4-isopropylsulfonylphenyl)-5H-pyrrolo[2,3-b]pyrazine-7-carboxamide]		< 100	
CC(C)S(=O)(=O)c1ccc(-c2cnc3[nH]cc(C(=O)N4CCC5(CC4)OCCO5)c3n2)cc1 [Compound I-128, 1,4-dioxa-8-azaspiro[4.5]decan-8-yl-[2-(4-isopropylsulfonylphenyl)-5H-pyrrolo[2,3-b]pyrazin-7-yl]methanone]			Ki: < 100 nM
CC(C)S(=O)(=O)c1ccc(-c2cnc3[nH]cc(C(=O)NCc4ccccc4CO)c3n2)cc1 [Compound I-129, N-[[2-(hydroxymethyl)phenyl]methyl]-2-(4-isopropylsulfonylphenyl)-5H-pyrrolo[2,3-b]pyrazine-7-carboxamide]		< 100	
CC(C)S(=O)(=O)c1ccc(-c2cnc3[nH]cc(C(=O)N4CCOc5ccccc5C4)c3n2)cc1 [Compound I-130, 3,5-dihydro-2H-1,4-benzoxazepin-4-yl-[2-(4-isopropylsulfonylphenyl)-5H-pyrrolo[2,3-b]pyrazin-7-yl]methanone]	> 250		
CC(C)S(=O)(=O)c1ccc(-c2cnc3[nH]cc(C(=O)N(CC(N)=O)C4CCCC4)c3n2)cc1 [Compound I-131, N-(2-amino-2-oxo-ethyl)-N-cyclopentyl-2-(4-isopropylsulfonylphenyl)-5H-pyrrolo[2,3-b]pyrazine-7-carboxamide]	> 40		
CC(C)S(=O)(=O)c1ccc(-c2cnc3[nH]cc(C(=O)N4CCN(C(=O)OC(C)(C)C)CC4)c3n2)cc1 [Compound I-132, tert-butyl 4-[2-(4-isopropylsulfonylphenyl)-5H-pyrrolo[2,3-b]pyrazine-7-carbonyl]piperazine-1-carboxylate]	> 2500		
CC(C)S(=O)(=O)c1ccc(-c2cnc3[nH]cc(C(=O)Nc4cc(C(C)(C)C)on4)c3n2)cc1 [Compound I-133, N-(5-tert-butylisoxazol-3-yl)-2-(4-isopropylsulfonylphenyl)-5H-pyrrolo[2,3-b]pyrazine-7-carboxamide]	> 40		
CC(C)S(=O)(=O)c1ccc(-c2cnc3[nH]cc(C(=O)N4CCCN(C(=O)OC(C)(C)C)CC4)c3n2)cc1 [Compound I-134, tert-butyl 4-[2-(4-isopropylsulfonylphenyl)-5H-pyrrolo[2,3-b]pyrazine-7-carbonyl]-1,4-diazepane-1-carboxylate]	> 40		
CC(c1ccc(Cl)cc1)N(C)C(=O)c1c[nH]c2ncc(-c3ccc(S(=O)(=O)C(C)C)cc3)nc12 (stereo not drawn) [Compound I-135, N-[1-(4-chlorophenyl)ethyl]-2-(4-isopropylsulfonylphenyl)-N-methyl-5H-pyrrolo[2,3-b]pyrazine-7-carboxamide]		< 100	
CC(C)S(=O)(=O)c1ccc(-c2cnc3[nH]cc(C(=O)N4CCCNCC4)c3n2)cc1 [Compound I-136, 1,4-diazepan-1-yl-[2-(4-isopropylsulfonylphenyl)-5H-pyrrolo[2,3-b]pyrazin-7-yl]methanone]	> 250		
CC(C)S(=O)(=O)c1ccc(-c2cnc3[nH]cc(C(=O)N4CCNCC4)c3n2)cc1 [Compound I-137, [2-(4-isopropylsulfonylphenyl)-5H-pyrrolo[2,3-b]pyrazin-7-yl]-piperazin-1-yl-methanone]	> 250		

From patent US9096602B2, “Substituted pyrrolo[2,3-B]pyrazines as ATR kinase inhibitors” (Vertex Pharmaceuticals Incorporated, priority 2011, dated 2015)
